Experimental data as given in ChEMBL document CHEMBL1137327, “Optimization of chromone-2-carboxamide melanin concentrating hormone receptor 1 antagonists: assessment of potency, efficacy, and cardiovascular safety” (J Med Chem, 2006).
Activity calls are given as the source filed them. The rule behind the calls is not given here.

Key:
[1] = biological target: T1, Melanin-concentrating hormone receptor 1 (Homo sapiens, UniProt Q99705); assay: Displacement of [125I]MCH from MCHr1 expressed in IMR32 cells; assay type: cell-based, IMR-32
[2] = biological target: T1, Melanin-concentrating hormone receptor 1; assay: Antagonist activity at MCHr1 assessed as inhibition of MCH-mediated calcium ion release in intact IMR32 cells by FLIPR assay; assay type: functional, cell-based, IMR-32
Rattus norvegicus [3] = assay: Drug level in anesthetized Sprague-Dawley rat plasma; assay type: ADME, organism-based; settings: in vivo
Rattus norvegicus [4] = assay: Drug level in anesthetized Sprague-Dawley rat brain; assay type: ADME, organism-based; settings: in vivo
[5] = Cmax in C57BL/6J DIO mouse plasma at 10 mg/kg, po; assay type: ADME, organism-based; design: dose 10 mg/kg, route oral; settings: read-out: Cmax
[6] = Half life in C57BL/6J DIO mouse plasma at 10 mg/kg, po; assay type: ADME, organism-based; design: dose 10 mg/kg, route oral
[7] = Cmax in C57BL/6J DIO mouse brain at 10 mg/kg, po; assay type: ADME, organism-based; design: dose 10 mg/kg, route oral
[8] = Half life in C57BL/6J DIO mouse brain at 10 mg/kg, po; assay type: ADME, organism-based; design: dose 10 mg/kg, route oral
Mus musculus [9] = assay: AUC in C57BL/6J DIO mouse brain at 10 mg/kg, po; assay type: ADME, organism-based; design: dose 10 mg/kg, route oral; settings: in vivo
[10] = Ratio of AUC in brain to plasma of C57BL/6J DIO mouse at 10 mg/kg, po; assay type: ADME, organism-based; design: dose 10 mg/kg, route oral; settings: brain and plasma, read-out: Ratio AUC
Mus musculus [11] = assay: Decrease in body weight of C57BL/6J DIO mouse at 10 mg/kg, po after 14 days relative to control; assay type: functional; design: scale not given: the % may be the effect or the level left
Mus musculus [12] = assay: Decrease in body weight of C57BL/6J DIO mouse at 30 mg/kg, po after 14 days relative to control; assay type: functional; design: scale not given: the % may be the effect or the level left
[13] = Drug level in C57BL/6J DIO mouse plasma at 10 mg/kg, po after 14 days; assay type: ADME, organism-based; design: dose 10 mg/kg, route oral
[14] = Drug level in C57BL/6J DIO mouse plasma at 30 mg/kg, po after 14 days; assay type: ADME, organism-based; design: dose 30 mg/kg, route oral
[15] = Drug level in C57BL/6J DIO mouse brain at 10 mg/kg, po after 14 days; assay type: ADME, organism-based; design: dose 10 mg/kg, route oral; settings: read-out: Drug uptake
[16] = Drug level in C57BL/6J DIO mouse brain at 30 mg/kg, po after 14 days; assay type: ADME, organism-based; design: dose 30 mg/kg, route oral; settings: read-out: Drug uptake
Mus musculus [17] = assay: Decrease in food intake of C57BL/6J DIO mouse at 10 mg/kg, po relative to control; assay type: functional; design: scale not given: the % may be the effect or the level left
Mus musculus [18] = assay: Decrease in food intake of C57BL/6J DIO mouse at 30 mg/kg, po relative to control; assay type: functional; design: scale not given: the % may be the effect or the level left
Mus musculus [19] = assay: Decrease in body weight of C57BL/6J DIO mouse at 1 mg/kg, po relative to control; assay type: functional, organism-based; design: dose 1 mg/kg
Mus musculus [20] = assay: Decrease in body weight of C57BL/6J DIO mouse at 3 mg/kg, po relative to control; assay type: functional, organism-based; design: dose 3 mg/kg
Rattus norvegicus [21] = assay: Decrease in mean arterial pressure in anesthetized Sprague-Dawley rat at 60 mg/kg; assay type: functional, Artery; design: scale not given: the % may be the effect or the level left
Rattus norvegicus [22] = assay: Decrease in heart rate in anesthetized Sprague-Dawley rat at 60 mg/kg; assay type: functional; design: scale not given: the % may be the effect or the level left

T1 sequence (Q99705 whole entry): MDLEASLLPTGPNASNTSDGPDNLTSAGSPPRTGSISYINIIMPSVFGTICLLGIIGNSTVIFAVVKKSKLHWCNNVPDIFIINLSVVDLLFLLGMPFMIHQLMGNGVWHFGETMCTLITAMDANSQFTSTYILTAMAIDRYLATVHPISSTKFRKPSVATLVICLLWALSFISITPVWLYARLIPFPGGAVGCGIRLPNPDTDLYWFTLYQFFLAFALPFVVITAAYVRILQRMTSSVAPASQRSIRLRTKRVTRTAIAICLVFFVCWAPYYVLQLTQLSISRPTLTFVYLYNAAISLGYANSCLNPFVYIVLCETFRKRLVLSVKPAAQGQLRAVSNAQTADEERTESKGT

Compound | IC50 [1] [nM] | IC50 [2] [nM] | further results
O=C(NC1CCN(Cc2ccc(F)cc2)CC1)c1cc(=O)c2ccc(F)cc2o1 | 159 | 789 | –
O=C(NC1CCN(Cc2ccc3c(c2)OCO3)CC1)c1cc(=O)c2cc(F)c(Cl)cc2o1 | 3 | 71 | –
O=C(NC1CCN(Cc2ccc3c(c2)OCO3)CC1)c1cc(=O)c2cc(F)ccc2o1 | 65 | 196 | –
N#Cc1ccc2c(=O)cc(C(=O)NC3CCN(Cc4ccc5c(c4)OCO5)CC3)oc2c1 | 47 | 137 | –
COc1ccc2c(=O)cc(C(=O)NC3CCN(Cc4ccc5c(c4)OCO5)CC3)oc2c1 | 11 | 73 | Cp (Rattus norvegicus [3]): 29000 ng/mL; Drug uptake (Rattus norvegicus [4]): 158 µg/g; Cmax [5]: 3600 ng/mL; half-life [6]: 3.1 h; Cmax [7]: 548 ng/g; half-life [8]: 4.9 h; AUC (Mus musculus [9]): 4398 ng·h/g; Kp [10]: 0.24; Activity (Mus musculus [11]): 7.3%; Activity (Mus musculus [12]): 15.9%; concentration at 336 h [13]: 10100 ng/mL; concentration at 336 h [14]: 32900 ng/mL; concentration at 336 h [15]: 4900 ng/g; concentration at 336 h [16]: 27100 ng/g; Activity (Mus musculus [17]): 16%; Activity (Mus musculus [18]): 37%; Activity (Mus musculus [19]): inactive; Activity (Mus musculus [20]): inactive
O=C(NC1CCN(Cc2ccc3c(c2)OCO3)CC1)c1cc(=O)c2cc(C(F)(F)F)ccc2o1 | 351 | – | –
CC(=O)c1ccc(CN2CCC(NC(=O)c3cc(=O)c4ccc(F)cc4o3)CC2)cc1 | 39 | 581 | –
COc1ccc(CN2CCC(NC(=O)c3cc(=O)c4ccc(F)cc4o3)CC2)c(F)c1 | 53 | 411 | –
O=C(NC1CCN(Cc2ccc3c(c2)OCO3)CC1)c1cc(=O)c2ccc(C(F)(F)F)cc2o1 | 178 | 3070 | –
O=C(NC1CCN(Cc2ccc3c(c2)OCO3)CC1)c1cc(=O)c2cc(Br)ccc2o1 | 187 | > 6000 | –
O=C(NC1CCN(Cc2ccc3c(c2)OCO3)CC1)c1cc(=O)c2ccc(Br)cc2o1 | 32 | 82 | –
COc1ccc2c(=O)cc(C(=O)NCC3CCN(Cc4ccc5c(c4)OCO5)C3)oc2c1 (stereo unspecified) | 1140 | 8300 | –
CC(=O)Nc1ccc(CN2CCC(NC(=O)c3cc(=O)c4ccc(F)cc4o3)CC2)cc1 | 1690 | > 10000 | –
COc1ccc2c(=O)cc(C(=O)NC3CCC(CNCc4ccc5c(c4)OCO5)CC3)oc2c1 (stereo unspecified) | > 2000 | – | –
O=C(NC1CCN(Cc2ccc3c(c2)OCCO3)CC1)c1cc(=O)c2ccc(F)cc2o1 | 73 | 171 | –
O=C(NC1CCN(Cc2ccc3c(c2)OCO3)CC1)c1cc(=O)c2ccc(OC(F)F)cc2o1 | 64 | 160 | –
COc1cc2oc(C(=O)NC3CCN(Cc4ccc5c(c4)OCO5)CC3)cc(=O)c2cc1F | 2 | 16 | Cp (Rattus norvegicus [3]): 105000 ng/mL; Drug uptake (Rattus norvegicus [4]): 149 µg/g; Activity (Rattus norvegicus [21]): 15.3%; Activity (Rattus norvegicus [22]): <15%
COc1ccc2c(=O)cc(C(=O)NC3CCN(Cc4ccc5c(c4)OCO5)C3)oc2c1 (stereo unspecified) | > 2000 | – | –
COc1ccc2c(=O)cc(C(=O)NCCC3CCCN3Cc3ccc4c(c3)OCO4)oc2c1 (stereo unspecified) | > 2000 | – | –
Cc1ccc2oc(C(=O)NC3CCN(Cc4ccc5c(c4)OCO5)CC3)cc(=O)c2c1 | 393 | – | –
O=C(NC1CCN(Cc2ccc3c(c2)OCO3)CC1)c1cc(=O)c2c(Cl)cccc2o1 | 24 | > 10000 | –
Cc1c(C(=O)NC2CCN(Cc3ccc4c(c3)OCO4)CC2)oc2cc(Cl)ccc2c1=O | 2 | 67 | –
